From a melting point compilation (Tetko et al.; mined from patent text by program, amines drawn as free bases though some values may be those of a salt)

Row | SMILES | melting point [°C]
1 | Cc1ccc(CC2(OCc3ccccc3)CCN(CC3Cc4cc(O)ccc4C3O)CC2)cc1 (centres undefined) | 131 to 132
2 | O=C(c1ccccc1)c1ccc(O)c(Cl)c1Cl | 123 to 126
3 | O=C(O)Cc1ccc(NC(=O)C(COC2CCCCO2)NS(=O)(=O)c2ccc(Cl)c([N+](=O)[O-])c2)cc1 (racemic) | 131 to 140
4 | CCCCCCCCC1(COc2ccc(N)cc2)CCc2c(C)c(OC(C)=O)c(C)c(C)c2O1 (centres undefined) | 112 to 114
5 | O=C(O)c1ccc(SC(Cn2ccnc2)c2ccccc2O)cc1 (centres undefined) | 186 to 190
6 | COC(=S)c1cc(C)nc(Cl)n1 | 90 to 92
7 | COc1ccccc1NC=C1C(=O)N(c2ccc(C(=O)O)cc2)N=C1C | > 300
8 | COC(=O)c1nn(C2CCCCO2)cc1NC(=O)c1cccc(C)n1 (centres undefined) | 100 to 102
9 | COC(=O)C(NS(=O)(=O)c1ccc(-c2ccc(NC(=O)c3oc4cccc(CO[Si](C)(C)C(C)(C)C)c4c3C)cc2)cc1)C(C)C (centres undefined) | 204 to 206
10 | CCn1c(C(c2cccc(F)c2)c2cccc(F)c2)nc(-c2ccncc2)c1-c1ccc(Cl)cc1 | 184 to 186
11 | CCOC(=O)COc1ccc(NS(C)(=O)=O)cc1C | 83 to 84
12 | O=C1CC(c2ccccc2)c2cccc(O)c21 (centres undefined) | 80
13 | N#Cc1c(N2CCCN(c3ccccn3)CC2)cc[nH]c1=S | 220 to 224
14 | COc1ccc(C(=O)c2cc([N+](=O)[O-])ccc2Cl)cc1OC | 138
15 | N#Cc1ccc(-c2cc3ccccc3[nH]c2=S)cc1 | 284 to 289
16 | CC(C)(C(=O)O)c1cn2nc(CCCCN3CCN(C(c4ccccc4)c4ccccc4)CC3)ccc2n1 | 108 to 110
17 | CCCc1ccc(NC(=O)c2cccnc2NCc2ccncc2)cc1C(F)(F)F | 147 to 149
18 | COc1ccc(CCCC(=O)NC(NC(=NC#N)Nc2cccnc2C)C(C)(C)C)cc1 (centres undefined) | 65 to 68
19 | CC(=O)c1ccc(Nc2cccc(-c3ccccn3)c2)c(N)c1 | 145 to 146
20 | CC(Oc1ncn(-c2ccc(C(F)(F)F)cc2)n1)C(=O)O (centres undefined) | 215 to 218
21 | [N-]=[N+]=N[C@@H]1CN2C(=O)N(c3cc(Cl)cc(Cl)c3)C(=O)[C@]2(Cc2ccc(Br)cc2)C1 | 58.9
22 | O=C(O)CON=CCCl | 66 to 68
23 | O=C1C(=O)N2CCCc3cccc1c32 | 199

Row | SMILES | melting point [°C]
24 | Cc1c(C)c(N2Cc3cc(Cl)c(Cl)cc3C2)c(C)c2c1OC(C)(C)C2c1ccccc1 (centres undefined) | 194 to 196
25 | COc1ccc(/C(=C/C(=O)N2CCN(C(=O)c3cc(OC)c(OC(C)=O)c(OC)c3)CC2)c2ccccc2Cl)cc1 | 191 to 194
26 | O=C1CN2Cc3c(O)cccc3N=C2N1 | > 280
27 | O=C1CC(c2ccccc2)C(=S)N1c1ccc(Cl)cc1 (centres undefined) | 153 to 155
28 | CC(C)Nc1c(C#N)cnn1-c1ccc(Cl)c(Cl)c1Cl | 141 to 142
29 | Fc1c(Br)ccc2c1OC(c1ccccc1)(c1ccccc1)O2 | 61.5 to 63
30 | COc1ccc(C=CC(=O)Nc2cnc3cc(C)c(C)cc3c2-c2ccccc2Cl)cc1OC | 210 to 211
31 | NS(=O)(=O)c1cc2cc(C=O)sc2o1 | 165 to 167
32 | COc1cc(OC)c(OC)cc1CN[C@@H](C(=O)O)[C@H](O)[C@H](Cc1ccccc1)NC(=O)OC(C)(C)C | 206
33 | OCCCn1c(=S)[nH]c2c(OCc3ccccc3)cccc21 | 124 to 125
34 | COc1cc(F)c2ncc(F)cc2c1 | 122
35 | CCCC(=O)OCC(=O)C12OCOC1CC1C3CCC4=CC(=O)C=CC4(C)C3C(O)CC12C (centres undefined) | 140 to 141
36 | O=S(=O)(O)OC[C@H]1Cc2ccccc2CN1 | 318
37 | COc1cccc(/C(=C\C=C\C(=O)NCCCCc2cccnc2)c2cccc(F)c2)c1 | 96 to 98
38 | CC(=O)OCC1OC(OC(C)=O)C(N=[N+]=[N-])C(OC(C)=O)C1OC1OC(COC(C)=O)C(OC(C)=O)C(OC(C)=O)C1OC(C)=O (centres undefined) | 77 to 78
39 | Cc1cc(NC(=O)C(C)(O)COc2cccc(F)c2)ccc1[N+](=O)[O-] (centres undefined) | 83 to 86
40 | O=C(CS(=O)CCNC(=O)c1ccco1)NCCCOc1cccc(CN2CCCCC2)c1 (centres undefined) | 101 to 102
41 | COc1ccccc1SCCC(=O)O | 91 to 91.5
42 | CCOC(=O)C=Cc1cc(OCc2ccccc2)ccc1-c1ccc(-c2cccc(C)c2)c(C=O)c1 | 90 to 92
43 | NCc1ccc(CNc2ncc3ncnc(Nc4ccc(F)c(Cl)c4)c3n2)cc1 | 211 to 213
44 | OCCNN=C(Cc1ccncc1)c1ccc(F)cc1 | 122 to 123
45 | COc1nc(NCn2nnc3ccccc32)nc(N(C)C)n1 | 222 to 224
46 | COC(=O)c1ccc(OCCCNc2ccc3c(c2)OCO3)cc1 | 124 to 127

Row | SMILES | melting point [°C]
47 | CN1CCC(NC2c3ccccc3Oc3ccccc32)CC1 | 96.5 to 98
48 | O=C(O)Cc1cc(Cl)c(Cl)cc1[N+](=O)[O-] | 119 to 120
49 | CC(C)(C)OC(=O)/C(=C/c1ccccc1)C(=O)c1cc2ccccc2cc1O | 132 to 135
50 | O=C(O)CC(=Cc1ccccc1)C(=O)O | 114
51 | CCCCc1nc2c(N)nc3ccccc3c2n1CCOCCON=C(C)C | 116 to 118
52 | O=C(Nc1ccc(Oc2ccnc(-n3ccnc3)n2)c2ccccc12)c1cc(F)cc(N2CCOCC2)c1 | 153 to 154
53 | CCOC(=O)COc1cc(-n2c(=O)cc(C(F)(F)F)n(C)c2=O)c(F)cc1Cl | 98 to 101
54 | CCCCCC1=CC(=O)C2=C(OC(C)(C)c3ccc(C)cc32)C1=O | 53 to 54
55 | CCCCNC(=O)NS(=O)(=O)c1ccc(CCNC(=O)N2Cc3ccc(Cl)cc3C2=O)cc1 | 208 to 210
56 | COC(=O)c1cc(NC(C)=O)c2cc(Cc3ccc(F)cc3)cnc2c1O | 243 to 245
57 | Cc1cc2c(cc1N1CCCCC1)OC(=O)C2C (centres undefined) | 61 to 63
58 | CC(C)(C)c1cc(CCc2cc(F)ccc2NC(=O)NC2CCN(Cc3ccccc3)CC2)cc(C(C)(C)C)c1O | 108 to 109
59 | Cc1cccc(N2CCN([C@@H](Cc3ccc(OCCc4nc(-c5ccccc5)oc4C)cc3)C(=O)O)CC2)c1 | 205 to 207
60 | COc1ccc(C=CC(=O)Nc2c(-c3ccccc3C)c3cc4c(cc3oc2=O)CCC4)cc1OC | 159 to 160
61 | COC(=O)[C@H](Cc1c[nH]cn1)NC(=O)[C@H](Cc1ccccc1)NC(=O)OCc1ccccc1 | 113 to 116
62 | CC1(C)CCSc2ccc(-c3cc(-c4ccc(C(=O)O)cc4)ccc3-c3ccccc3)cc21 | 51
63 | CC(=O)Oc1ccc(C=CC(=O)C=Cc2ccc(OC(C)=O)cc2)cc1 | 167 to 168
64 | CCCc1nc2c(N)nc3ccccc3c2s1 | 140 to 142
65 | O=C(NNc1ccccc1)C1CSC(c2cccnc2)N1 (centres undefined) | 155
66 | CC1(C)SC(C)(C)C1C(=O)O | 149 to 151
67 | CCOC(=O)COc1c(CC=C(C)C)c(OC)cc(OC)c1C(=O)C=Cc1ccc(OC)cc1 | 85 to 86
68 | COc1nc2cc(Cl)c(Cl)cc2nc1S(C)(=O)=O | 216 to 219
69 | CCCc1cc(Cn2c(=O)ccc3c(CC)nc(CC)cc32)ccc1Oc1ccccc1CC(=O)OC | 91 to 92
